Where two headings read alike, the source gives them in different places.
How the values were obtained:
5-HT2 receptor = molecular target: T1, 5-HT2 receptor (Rattus norvegicus, UniProt P14842); test: Affinity for serotonin 2 (5-HT2) receptor, 3H-Ketanserin binding test
T1 construct: Freezed cerebral cortex dissected out from rats were homogenized; from tissue; host or cells: rat cerebral cortex, crude synaptosomal membranes
Description: Affinity for serotonin 2(5-HT2)receptor (^3 H-Ketanserin binding test).
The supernatant was centrifuged at 40,000× g for 20 minutes at 0° C. and the resulting pellets was homogenized in 30 volumes of ice-cold 50 mM Tris-HCI buffer (pH.7.7) and incubated at 37° C. for 10 minutes. The suspension was centrifuged at 40,000× g for 20 minutes at 0° C. again. The resulting pellet was homogenized in 100 volumes of the above buffer and provided as synaptosome membranes solution for the next assay.
To the aliquots (900 m) of synaptosome membranes solution were added 50 ml solution of ^3 H-Ketanserin solution at the terminal concentration of […] and 50 ml of test compound or its medium, and incubated at 37° C. for 20 minutes. After completion of the reaction, the mixture was rapidly vacuum-filtered through Whatman^R GF/B filters. The filters were washed three times with 5 ml of the above buffer, and then the radioactivity of the residue remaining on the filters was measured by liquid scintillation counter. Non specific binding was determined under the presence of […] of mianserin.

D2 receptor = molecular target: T2, D2 receptor (Rattus norvegicus, UniProt P61169); test: Affinity for dopamine 2 (D2) receptor, 3H-Spiperone binding test; details: rat corpus striatum, 3H-Spiperone 0.2 nM, 37° C. 20 minutes; read-out: D2 affinity expressed as IC50
T2 construct: Freezed corpus striatum dissected out from rats were homogenized; from tissue; host or cells: rat corpus striatum, crude synaptosomal membranes
Description: Affinity for dopamine 2 (D2)receptor (^3 H-Spiperone binding test.)
Preparation of crude synaptosome fraction and binding assays were conducted in accordance with the method reported in European Journal of Pharmacology, vol 46, page 377,1977 by I.Creese et al. Freezed corpus striatum dissected out from rats were homogenized in 100 volumes of ice cold 50 mM Tris-HCl buffer (pH.7.7) and the suspension was centrifuged at 500× g for 10 minutes at 0° C.
The supernatant was centrifuged at 50,000× g for 15 minutes at 0° C. and the resulting pellet was homogenized in 100 volumes of the above buffer and then the suspension was centrifuged at 50,000× g for 15 minutes at 0° C. again. The resulting pellet was homogenized in 150 volumes of 50 mM Tris-HCl buffer (PH 7.1) containing 120 mM potassium chloride, 2 mM calcium chloride, 1 mM magnesium chloride, 0,1 ascorbic acid and […] pargyline. The suspension was incubated at 37° C. for 10 minutes and then provided as synaptosome membranes solution for the next assays. To the aliquots (900 m) of synaptosome membranes solution were added 50 ml of H-Spiperone solution at the terminal concentration of 0.2 nM and 50 ml of test compound solution or 50 ml of its medium, and incubated at 37° C. for 20 minutes. After completion of the reaction, the mixture was rapidly vacuum-filtered through Whatman^R GF/B filters. The filters were washed three times with 5 ml of the above buffer, and then the radioactivity of the residue remaining on the filters was measured by liquid scintillation counter. Nonspecific binding was determined under presence of […] of L)-Sulpiride 50% Inhibition concentration (IC50) of the test compound was graphically determined.

5-HT1A receptor = molecular target: T3, 5-HT1A receptor (Rattus norvegicus, UniProt P19327); test: Affinity for serotonin 1A (5-HT1A) receptor, 3H-8-OH-DPAT binding test
T3 construct: Freezed hippocampus dissected out from rats were homogenized; from tissue; host or cells: rat hippocampus, crude synaptosomal membranes
T3 sequence (P19327 1-422): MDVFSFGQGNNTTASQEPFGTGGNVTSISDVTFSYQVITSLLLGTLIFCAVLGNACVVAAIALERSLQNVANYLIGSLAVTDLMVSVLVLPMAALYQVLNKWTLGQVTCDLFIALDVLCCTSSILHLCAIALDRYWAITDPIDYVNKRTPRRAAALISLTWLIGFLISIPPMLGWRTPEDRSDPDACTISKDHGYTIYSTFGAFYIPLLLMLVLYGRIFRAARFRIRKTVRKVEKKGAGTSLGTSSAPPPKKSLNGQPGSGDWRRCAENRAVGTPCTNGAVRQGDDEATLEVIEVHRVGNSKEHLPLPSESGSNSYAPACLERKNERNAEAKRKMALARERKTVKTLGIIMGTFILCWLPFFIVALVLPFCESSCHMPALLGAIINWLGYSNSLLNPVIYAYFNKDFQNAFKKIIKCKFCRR
Description: Affinity for serotonin 1A (5-HT1A) receptor [^3 H-8-Hydroxy-2-dipropylaminotetralin (^3 H-8-OH-DPAT)binding test]
Preparation of crude synaptosome fraction and binding assay were conducted in accordance with the method reported in Journal of Neurochemistry, vol 44, page 1685, 1985 by Hall et al. Freezed hippocampus dissected out from rats were homogenized in 40 volumes of ice cold 50 mM Tris-HCl buffer (pH. 7.4) and the suspension was centrifuged at 500× g for 10 minutes at 0° C.
The supernatant was centrifuged at 40,000× g for 20 minutes at 0° C. and the resulting pellet was homogenized in 40 volumes of the above buffer and incubated at 37° C. for 10 minutes. After completion of reaction, the suspension was centrifuged at 40,000× g for 20 minutes at 0° C. The resulting pellet was washed twice by resuspension in 40 volumes of the above buffer and centrifugation, and finally suspended in 60 volumes of ice-cold 50 mM Tris-HCI buffer (pH 7.4) containing 1 mM manganese chloride for use in the next assay.
To the aliquots ([…]) of synaptosome membranes solution were added 50 ml of tritiated 8-OH-DPAT solution at the terminal concentration of 0.2 nM and 50 ml of test compound solution or 50 ml of its medium, and incubated at 37° C. for 10 minutes. Then to the mixture was added 5 ml of ice-cold 50 mM Tris-HCI buffer (pH 7.4) rapidly vacuum-filtered through Whatman^R GF/B filters and washed twice with 5 ml of the same buffer. The radioactivity of the residue remaining on the filters was measured by liquid scintillation counter. Nonspecific binding was determined under the presence of 10^-5 M serotonin (5-HT). 50% Inhibition concentration (IC50) of the test compound was graphically determined.

D1 receptor = test: Affinity for D1 receptor (method not described); assay type: binding; details: read-out: D1 affinity expressed as IC50
PKC = PKC translocation in hippocampal synaptosomes (Western blot); assay type: cell-based; details: 15 min at 30° C., control = 100, dose not given
Description: PKC translocation in different brain's area
Purified synaptosomes have been obtained following the procedure described by Dunkley (Dunkley P. R., Health J. W:, Harrison S. M., Jarvie P. E., Glenfield P. J. and Rostas J. A. P.
A rapid percolation gradient procedure for isolation of synaptosomes directly from Si fraction: homogeneity and morphology of subcellular fractions. Brain res 441:59-71, 1988).
Synaptosomes purified from cortex, hippocampus were incubated (10 mg/ml) for 15 min at 30° C. in presence of increasing doses of the compounds of the present invention dissolved in tartaric acid (pH 7.0) or of the vehicle alone.
After incubation, purified synaptosomes were collected in cold Krebs buffer containing 10 mM EGTA and then processed according to Shearmann et al (Shearman M. S., Shinomura T., Oda T. and Nishizuka Y. Protein kinase C subspecies in adult rat hippocampal synaptosomes. Activation by diacylglycerol and arachidonic acid. FEBS Lett 279:261-264, 1991).
Synaptosomes have been lysed in this solution for 30 min at 4° C. with stirring. […]
PKC on Western blots was detected with a polyclonal total PKC antibody (Upstate Biotechnology). […] Antigen antibody complexes were detected by enhanced chemiluminescence. Results have been analysed by computer assisted Image analysis and expressed as per cent of PKC translocation in control conditions.

[1] = rat hippocampus, 3H-8-OH-DPAT 0.2 nM, 37° C. 10 minutes, read-out: 5-HT1A affinity expressed as IC50

T2 sequence (P61169 whole entry): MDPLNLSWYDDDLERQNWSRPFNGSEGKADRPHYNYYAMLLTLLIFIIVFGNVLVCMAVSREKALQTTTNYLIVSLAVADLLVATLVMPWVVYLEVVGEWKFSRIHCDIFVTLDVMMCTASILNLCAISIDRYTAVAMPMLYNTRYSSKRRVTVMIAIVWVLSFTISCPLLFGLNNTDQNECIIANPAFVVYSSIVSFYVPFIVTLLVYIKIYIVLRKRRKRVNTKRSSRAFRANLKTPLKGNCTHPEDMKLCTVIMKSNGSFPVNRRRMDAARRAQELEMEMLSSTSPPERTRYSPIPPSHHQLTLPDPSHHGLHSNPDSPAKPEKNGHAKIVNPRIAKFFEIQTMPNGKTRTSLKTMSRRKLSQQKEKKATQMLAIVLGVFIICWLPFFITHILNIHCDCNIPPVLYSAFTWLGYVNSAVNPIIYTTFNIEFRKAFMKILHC
T1 sequence (P14842 whole entry): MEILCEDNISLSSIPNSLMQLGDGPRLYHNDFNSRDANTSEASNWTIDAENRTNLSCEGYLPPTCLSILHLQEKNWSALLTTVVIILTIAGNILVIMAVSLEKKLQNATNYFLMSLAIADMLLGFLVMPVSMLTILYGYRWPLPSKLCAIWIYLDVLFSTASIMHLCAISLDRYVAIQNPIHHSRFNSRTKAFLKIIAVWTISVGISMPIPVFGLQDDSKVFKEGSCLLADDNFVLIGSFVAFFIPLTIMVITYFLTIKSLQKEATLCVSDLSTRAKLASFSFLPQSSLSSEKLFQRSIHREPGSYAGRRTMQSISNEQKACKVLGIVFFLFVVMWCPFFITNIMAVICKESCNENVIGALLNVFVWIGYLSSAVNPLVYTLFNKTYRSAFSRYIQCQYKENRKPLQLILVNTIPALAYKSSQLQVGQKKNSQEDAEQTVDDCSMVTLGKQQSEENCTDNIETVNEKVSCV

Structure (SMILES): CO[C@]12C[C@@H](Cc3noc(-c4cncc(Br)c4)n3)CN(C)[C@@H]1Cc1cn(C)c3cccc2c13 [Example 2, 1,6-Dimethyl-8β-methyl-[5-(5-bromo-pyridin-3-yl)-1,2,4-oxadiazol-3-yl]-10α-methoxy-ergoline]
- IC50 (5-HT2 receptor): 2400 nM
- IC50 (D2 receptor): 3640 nM
- IC50 (5-HT1A receptor; [1]): 200 nM

Structure (SMILES): CO[C@]12C[C@@H](Cc3nnc(-c4cncc(Br)c4)o3)CN(C)[C@@H]1Cc1cn(C)c3cccc2c13 [Example 10, 1,6-Dimethyl-8β-methyl-[2-(5-bromo-pyridin-3-yl)-1,3,4-oxadiazol-5-yl]-10α-methoxy-ergoline]
- IC50 (5-HT2 receptor): 890 nM
- IC50 (D2 receptor): 2510 nM
- IC50 (5-HT1A receptor): 11 nM

Structure (SMILES): CO[C@]12C[C@@H](c3nnc(-c4cncc(Br)c4)o3)CN(C)[C@@H]1Cc1cn(C)c3cccc2c13 [Example 8, 1,6-Dimethyl-8β-[2-(5-bromo-pyridin-3-yl)-1,3,4-oxadiazol-5-yl]-10α-methoxy-ergoline]
- IC50 (5-HT2 receptor): 27 nM
- IC50 (D2 receptor): 1950 nM
- IC50 (D1 receptor): 2040 nM
- IC50 (5-HT1A receptor): 9 nM

Structure (SMILES): CO[C@]12C[C@@H](Cc3nc(-c4cncc(Br)c4)no3)CN(C)[C@@H]1Cc1cn(C)c3cccc2c13 [Example 4, 1,6-Dimethyl-8β-methyl-[3-(5-bromo-pyridin-3-yl)-1,2,4-oxadiazol-5-yl]-10α-methoxy-ergoline]
- PKC translocation in hippocampal synaptosomes, expressed as per cent of PKC translocation in control conditions (PKC): 126 per cent
- IC50 (5-HT2 receptor): 3400 nM
- IC50 (D2 receptor): 2930 nM
- IC50 (5-HT1A receptor; [1]): 300 nM
